Data: PMC6045489 (ACS Omega, 2018)

How the values were obtained:
[1] = system: A549 lung cancer cell line; assay: Sulforhodamine B antiproliferative assay, A549; type: cell-based; conditions: Homo sapiens, A549, read-out: IC50 A549, mean ± SEM
[2] = system: MDA-MB-231 human breast adenocarcinoma cell line; assay: Sulforhodamine B antiproliferative assay, MDA-MB-231; type: cell-based; conditions: MDA-MB-231, read-out: IC50 MDA-MB-231, mean ± SEM
[3] = system: HeLa cervical cancer cell line; assay: Sulforhodamine B antiproliferative assay, HeLa; type: cell-based; conditions: Homo sapiens, read-out: IC50 HeLa, mean ± SEM
[4] = system: DU-145 prostate cancer cell line; assay: Sulforhodamine B antiproliferative assay, DU-145; type: cell-based; conditions: Homo sapiens, DU-145, read-out: IC50 DU-145, mean ± SEM
[5] = system: HEK-293 primary human embryonic kidney cell line; assay: Sulforhodamine B assay, control cell line HEK-293; type: cell-based; conditions: HEK293, read-out: IC50 HEK-293, mean ± SEM, normal control cells
DU-145 cells = assay: Immunoblot of apoptotic proteins; type: cell-based, human; conditions: DU-145, immunoblot, vs vehicle control
HeLa cells = conditions: read-out: IC50 HeLa (reported literature value); cited from earlier work

Compound	IC50 [1] [µM]	IC50 [2] [µM]	IC50 [3] [µM]	IC50 [4] [µM]	IC50 [5] [µM]	Annexin V protein expression (DU-145 cells)	BAX protein expression (DU-145 cells)	IC50 (HeLa cells) [µM]
C#CCCCC[C@H](C)C[C@@H](C)C(=O)O [Compound 2, (2R,4S)-2,4-Dimethyldec-9-ynoic Acid]	167 ± 12	164 ± 20	122 ± 14	123 ± 20	259 ± 35			
C#CCCCC[C@H](C)C[C@@H](C)C(=O)N1C(=O)OC[C@H]1Cc1ccccc1 [Compound 17, (R)-4-Benzyl-3-((2R,4S)-2,4-dimethyldec-9-ynoyl)oxazolidin-2-one]	158 ± 15	102 ± 14	160 ± 10	188 ± 29	293 ± 16			
jahanyne								1.8

Further lines, with some results ahead:

IC50 [1] [µM]	IC50 [2] [µM]	IC50 [3] [µM]	IC50 [4] [µM]	Compound	IC50 [5] [µM]	Annexin V protein expression (DU-145 cells)	BAX protein expression (DU-145 cells)	IC50 (HeLa cells) [µM]
0.5 ± 0.03	8 ± 0.4	26 ± 3	2 ± 0.8	CC(O)[C@@H]1CCCN1C(=O)[C@@H]1CCCN1C(=O)OC(C)(C)C (mixture of isomers) [Compound 22, (2S)-tert-Butyl 2-((2S)-2-(1-Hydroxyethyl)pyrrolidine-1-carbonyl)pyrrolidine-1-carboxylate]	3390 ± 123			
5 ± 0.4	3 ± 0.1	5 ± 1	1 ± 0.9	CC(=O)[C@@H]1CCCN1C(=O)[C@@H]1CCCN1C(=O)OC(C)(C)C [Compound 21, tert-Butyl(S)-2-((S)-2-acetylpyrrolidine-1-carbonyl)pyrrolidine-1-carboxylate]	5440 ± 245			
1 ± 0.1	1 ± 0.1		0.5 ± 0.2	COc1cccc2c1C(=O)c1c(O)c3c(c(O)c1C2=O)C[C@@](O)(C(=O)CO)C[C@@H]3O[C@H]1C[C@H](N)[C@H](O)[C@H](C)O1 [doxorubicin, reference compound]	39 ± 2	highly expressed	highly expressed	
